Test results reported in PMC8704315, “Lichen-Derived Compounds and Extracts as Biologically Active Substances with Anticancer and Neuroprotective Properties” (Pharmaceuticals, 2021).

Tests used:
[1] = target: T1, tryptophan 2,3-dioxygenase (TDO) (Homo sapiens, UniProt P48775); test: Universal IDO1/IDO2/TDO Inhibitor Screening Assay Kit, TDO; format: biochemical; details: read-out: Inhibition (%) TDO
T1 construct: purchased BPS Bioscience, Inc. (San Diego, CA, USA)
Procedure: (§1) This colorimetric assay is based on the measurement of the ability of IDO1, IDO2 and TDO to convert L-tryptophan into N-formylkynurenine (NFK). The experiments were performed according to the manufacturer’s guidelines. The final concentration of the compounds and extracts in the reaction mixture was 100 µg/mL. The amount of NFK was measured spectrophotometrically at 320 nm using an Epoch BioTek microplate reader (BioTek Instruments, Inc., Winooski, VT, USA). The samples were run in triplicate and the results were expressed as mean ± SEM.

[2] = target: T2, indoleamine 2,3-dioxygenases 2 (IDO2) (Homo sapiens, UniProt Q6ZQW0); test: Universal IDO1/IDO2/TDO Inhibitor Screening Assay Kit, IDO2; format: biochemical; details: read-out: Inhibition (%) IDO2
T2 construct: purchased BPS Bioscience, Inc. (San Diego, CA, USA)
T2 sequence (Q6ZQW0 1-407): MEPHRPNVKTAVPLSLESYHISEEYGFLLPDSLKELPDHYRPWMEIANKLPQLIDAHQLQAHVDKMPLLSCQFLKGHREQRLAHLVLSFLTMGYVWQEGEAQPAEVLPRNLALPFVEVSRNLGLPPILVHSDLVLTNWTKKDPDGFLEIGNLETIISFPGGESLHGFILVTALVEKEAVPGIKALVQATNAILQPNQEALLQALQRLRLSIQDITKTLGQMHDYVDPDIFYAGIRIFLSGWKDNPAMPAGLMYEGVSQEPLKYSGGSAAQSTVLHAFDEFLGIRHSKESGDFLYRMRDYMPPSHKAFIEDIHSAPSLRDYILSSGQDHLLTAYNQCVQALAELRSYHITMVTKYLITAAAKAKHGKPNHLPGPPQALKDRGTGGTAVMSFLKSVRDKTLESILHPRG
Procedure: as §1

T1 sequence (P48775 whole entry, species assumed): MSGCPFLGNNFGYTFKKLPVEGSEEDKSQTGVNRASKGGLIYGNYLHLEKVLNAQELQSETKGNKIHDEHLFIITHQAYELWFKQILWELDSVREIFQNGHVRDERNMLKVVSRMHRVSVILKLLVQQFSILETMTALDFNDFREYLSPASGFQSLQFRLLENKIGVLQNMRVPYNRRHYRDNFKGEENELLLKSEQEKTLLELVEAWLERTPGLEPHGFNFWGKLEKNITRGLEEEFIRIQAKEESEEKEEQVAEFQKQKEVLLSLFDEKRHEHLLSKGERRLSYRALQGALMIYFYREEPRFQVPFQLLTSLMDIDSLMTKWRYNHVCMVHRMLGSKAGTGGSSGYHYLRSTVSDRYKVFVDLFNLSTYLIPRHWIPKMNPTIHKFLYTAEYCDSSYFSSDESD

NS(=O)(=O)NCCNc1nonc1C(=NO)Nc1ccc(F)c(Br)c1 [epacadostat, reference compound]
inhibition at 100 µg/mL [1]: < 10%
inhibition at 100 µg/mL [2]: < 10%
